The results in this text go back to ChEMBL document CHEMBL4842345, “Design, synthesis and biological evaluation of tanshinone IIA-based analogues: Potent inhibitors of microtubule formation and angiogenesis” (Eur J Med Chem, 2021).

As usually defined, the IC50 is the concentration that gives 50% inhibition.

Data set [1] relates to HeLa. The data set can be described thus: Antiproliferative activity against human HeLa cells assessed as reduction in cell viability measured after 72 hrs by MTT assay. It is filed as functional, cell-based. On the technique in general: Tetrazolium dyes change colour on reduction, which living cells bring about.
For data set [2], the system named is U-937. The data set can be described thus: Antiproliferative activity against human U-937 cells assessed as reduction in cell viability measured after 72 hrs by MTT assay. The settings on record: U-937, 72 h. It is filed as functional, cell-based.
In data set [3] the target is T1, Tubulin (Homo sapiens) (UniProt P68371+Q9H4B7+P0DPH7+P68366+Q13509+Q71U36+P04350+Q3ZCM7+P07437+P68363+Q9BQE3+Q6PEY2+Q13885+Q9BVA1+Q9BUF5). Kind of data set: Induction of microtubule distruption in human A549 cells assessed as spindle shaped microtubule structure at 2.5 to 10 uM measured after 48 hrs by immunofluorescence based laser scanning confocal microscopic analysis. The note with it: dose 2.5-10 µM. It is filed as cell-based.

Data set [4] has as its system A549. Kind of data set: Antiproliferative activity against human A549 cells assessed as reduction in cell viability measured after 72 hrs by MTT assay. The note with it: A549, 72 h. The class given is functional, cell-based.
Data set [5] relates to A549. Kind of data set: Induction of apoptosis in human A549 cells assessed as early apoptotic cells at 5 uM measured after 48 hrs by Annexin V-FITC/PI staining based flow cytometry analysis (Rvb= 0.72%). It is filed as functional. A general note: Flow cytometry measures light scatter and fluorescence of single cells or particles in a stream.
Data set [6] has as its system A549. The data set can be described thus: Induction of apoptosis in human A549 cells assessed as late apoptotic cells at 5 uM measured after 48 hrs by Annexin V-FITC/PI staining based flow cytometry analysis (Rvb= 1.47%). It is filed as functional.
For data set [7], the system named is A549. The data set can be described thus: Induction of apoptosis in human A549 cells assessed as late apoptotic cells at 10 uM measured after 48 hrs by Annexin V-FITC/PI staining based flow cytometry analysis (Rvb= 1.47%). The class given is functional.
Data set [8] deals with A549. Kind of data set: Induction of apoptosis in human A549 cells assessed as dead cells at 10 uM measured after 48 hrs by Annexin V-FITC/PI staining based flow cytometry analysis (Rvb= 0.67%). It is filed as functional.
Data set [9] deals with A549. Kind of data set: Induction of cell cycle arrest in human A549 cells assessed as increase in number of cells accumulation at G2/M phase at 2.5 uM measured after 48 hrs by flow cytometry analysis (Rvb= 16.72%). The class given is functional.
In data set [10] the test system is A549. The data set can be described thus: Induction of cell cycle arrest in human A549 cells assessed as increase in number of cells accumulation at G2/M phase at 10 uM measured after 48 hrs by flow cytometry analysis (Rvb= 16.72%). It is filed as functional.
The subject of data set [11] is A549. The data set can be described thus: Induction of cell cycle arrest in human A549 cells assessed as accumulation of cells at G1 phase at 2.5 uM measured after 48 hrs by flow cytometry analysis (Rvb= 60.29%). The class given is functional.
The subject of data set [12] is A549. The data set can be described thus: Induction of cell cycle arrest in human A549 cells assessed as accumulation of cells at S phase at 5 uM measured after 48 hrs by flow cytometry analysis (Rvb= 24.5%). The class given is functional.
The test system of data set [13] is HUVEC. The data set can be described thus: Inhibition of cell migration in HUVEC cells assessed as decrease in closure of wound scratching measured after 48 hrs by wound healing assay. It is filed as functional, cell-based. The settings on record: Homo sapiens, dose 0.25-1 µM.
Data set [14] concerns A549. Kind of data set: Antiinvasive activity in human A549 cells assessed as decrease in number of migrated A549 cells at 0.5 to 2 uM measured after 48 hrs by crystal violet staining based transwell assay. The class given is functional, cell-based. The settings on record: dose 0.5-2 µM.
A short description of data set [15]: Kinetic solubility of the compound at pH 2 by nephelometry. The class given is physicochemical. The settings on record: buffer, read-out: Kinetic_solubility.
Data set [16] can be described thus: Intrinsic clearance in human liver microsome. It is filed as ADME, microsomes. The settings on record: microsomes.
Data set [17] deals with T1, Tubulin (Homo sapiens). Kind of data set: Displacement of [3H]colchicine binding to tubulin (unknown origin). The class given is protein-complex assay. In general terms: Loss of bound radioactivity is the signal in a displacement assay; it reports binding, not function.

Converted amounts (≈) assume the structure as drawn. The source made the active and inactive calls. No cut-off for these calls is given here.

As for `COc1ccc2c(c1)-c1occ(C)c1C(=O)C2=O`, the IC50 in [1] stood at 0.28 µM; in data set [2], 2.77 µM; in data set [4], 0.32 µM. Further, the result in data set [3] was inactive. Further, the Activity in [5] turned out to be 10.3%; in [6], 5.58%; in data set [7], 8.19%; in data set [8] it was 0.5%; in data set [9], 17.41%; in data set [10], 32.19%. In addition, the Activity turned out to be 61.93% in data set [11] and 25.26% in data set [12]. In addition, the inhibition entry in data set [13] was “Dose-Dependent Effect”. Moreover, the outcome in data set [14] and in data set [17] was Active. The solubility kinetic in [15] was determined as 0.25 mg/mL (≈ 1030 µM). The compound further had a CLH in data set [16] of 175 µL/min/mg.
